Measurements as given in patent US10942183B2, “Methods of detecting progesterone receptor and of detecting an expression level” (REGENTS OF THE UNIVERSITY OF MINNESOTA, priority 2017, dated 2021).

What was measured:
[1] = system: PR Ser294 phosphorylation; test: Breast tumor explants, phospho-Ser294 PR IHC; type: cell-based, human; details: progesterone 10 nM plus U0126 (1 nM as printed elsewhere in the source), 2 hours
From the text: De-identified breast tumor samples were collected after surgery and immediately processed for tissue explant maintenance on sponges in cell culture medium, as previously described (Ravindranathan et al. Nature Communications 2013, 4:1923). Samples were derived from six patients pathologically diagnosed with invasive ductal carcinoma (IDC) and scored positive for ER (94-100%) and PR (1-100%), and negative for HER2 expression. […] In additional experiments, six explants were similarly treated with estrogen or progesterone (2 hours) but in combination with 1 uM U0126 (to inhibit ERKs 1/2) and phospho-Ser294 PR levels were measured by IHC.
ER+ luminal tumors were maintained as explants as above and instead treated with either vehicle or progesterone (10 nM) for 2 hours in the presence or absence of the MEK1/2 inhibitor U0126 (1 nM) prior to IHC staining using specific antibodies for total and phospho-Ser294 PR as well as ER-alpha and phospho-ERK1/2 (n=6; see Methods).

[2] = system: PR Ser294 phosphorylation; test: PR Ser294 phosphorylation in T47D cells (Western blotting, immunofluorescence); type: cell-based, human; details: T47D cells expressing WT or KR PR
Protocol: T47D human breast cancer cell lines engineered to stably express PR variants (null, WT, K388R, or S294A) were previously described (Knutson et al. Breast Cancer Res 2012, 14:R9). T47D cells were maintained in complete minimal essential medium (cMEM) supplemented with 5% fetal bovine serum (FBS), 1% non-essential amino acids (NEAA), 1% penicillin/streptomycin, 6 ng/ml insulin (CellGro, Manassas, Va., USA, catalog #10-010-CV). T47D cells described above were engineered to also stably express RUNX2 shRNAs via the pLKO.1 knockdown expression vector system, which required 25 μg/ml puromycin for the vector. In various experiments, cells or explants were treated with E2, ICI 182 780, R5020, mifepristone, aglepristone, or onapristone (Arno Therapeutics, Inc., Flemington, N.J.).
Immunocytochemistry was performed on T47D cells expressing PR variants to measure total- and phospho-Ser294 PR levels. 500,000 cells were grown on coverslips in 6-well plates, starved in IMEM plus 5% charcoal stripped FBS, treated, and fixed with 4% paraformaldehyde for 20 min. The cells were permeabilized with 0.3% Triton-X100 before incubating with total-PR (clone Ab8, ThermoFisher Scientific, Waltham, Mass.) or custom phospho-Ser294-PR (clone 8508) antibodies. Cells were incubated with fluorescent secondary antibodies (Alexa Fluor 488) and DAPI mounting medium (Life Technologies, ThermoFisher Scientific, Waltham, Mass.) before visualizing on a Zeiss microscope with A4 and L5 filter cubes. Immunoblotting was performed as previously described (Daniel et al. Mol Endocrinol 2007, 21:2890-2906).
In addition, extensive luminal breast cancer heterogeneity may limit the ability to observe a subset of PR-driven breast cancers without patient selection. In this case, PR target gene expression may provide an accurate means of predicting which breast tumors are likely to be influenced by PR-driven biological pathways enacted by active phospho-Ser294 PRs. To probe changes in PR target gene expression in the presence or absence of commonly used PR ligands (R5020, RU486), including diverse antiprogestins (aglepristone, onapristone) currently in development for clinical use, the well characterized model system of T47D breast cancer cells, stably expressing either unmodified wild-type (WT) PR-B or a transcriptionally hyperactive form of deSUMOylated K388R PR-B (KR; this receptor faithfully mimics phosphorylated PR-B with regard to target gene selection) were used (Knutson et al. Pharmacology & therapeutics 2014, 142:114-125; Daniel et al. Mol Endocrinol 2007, 21:2890-2906). Whether the antiprogestins mifepristone (also called RU486), aglepristone, or onapristone alter PR Ser294 phosphorylation were tested in these T47D breast cancer models. Cells were treated for 1 hour with vehicle, progesterone, mifepristone, aglepristone, or onapristone and whole cell lysates were processed for Western blotting or immunofluorescence (IF) analysis (FIG. 4A, B). […] Greater loss of total KR PR protein was also apparent in the presence of progesterone and selected antiprogestins relative to liganded WT PR, consistent with increased turnover of deSUMOylated active receptors relative to intact WT PRs.

[3] = system: PR target gene expression; test: Global gene expression analysis (Illumina HT-12v4) in T47D cells expressing WT or K388R PR-B; type: cell-based, human; details: T47D KR PR, antiprogestin 10^-7 M, 6 hours
Protocol: For genome-wide microarray expression analysis, T47D cells expressing pIRES-neo3 empty vector, WT PR, or K388R PR were serum starved in modified improved minimum essential media (IMEM) (Gibco, ThermoFisher Scientific, Waltham, Mass.) for one day before treatment. Eight groups were treated with vehicle control, progesterone (10^−8 M), mifepristone (10^−7 M), aglepristone (10^−7 M), onapristone (10^−7 M), or combined treatment of progesterone+mifepristone, progesterone+aglepristone, or progesterone+onapristone for six hours before RNA extraction using a RNeasy kit (QIAgen). DNase I treated (QIAgen) RNA samples from triplicate experiments were prepared for expression analysis using the Illumina HT-12v4 bead chip platform according to standard protocols. Raw data from agonist-treated cells (progesterone or R5020) collected from two identically performed independent experiments (from this study and a previous study: GSE34148 (Knutson et al. Breast Cancer Res 2012, 14:R95)) was combined, normalized, and batch-corrected to ensure that gene expression values were informative across samples from separate experiments. Data were analyzed within multiple common R (R Core Team: R: A language and environment for statistical computing. R Foundation for Statistical Computing, Vienna, Austria 2015, [available on the world wide web at r-project.org/]) and Bioconductor (Gentleman et al. Genome Biol 2004, 5:R80) packages. Raw intensities were log 2 transformed and quantile normalized using lumi (Du et al. Bioinformatics 2008, 24:1547-1548), batch corrected using sva (Leek et al.: sva: Surrogate Variable Analysis. R package version 3.18.0.), and multiple probes for a single gene were collapsed using genefilter (Gentleman et al.: genefilter: genefilter: methods for filtering genes from high-throughput experiments. R package version 1.52.1). Differentially expressed genes (pairwise comparisons between all eight groups) were analyzed in limma (Smyth: Limma: linear models for microarray data. In: Bioinformatics and computational biology solutions using R and Bioconductor. edn.: Springer; 2005: 397-420), where empirical Bayes was used to better estimate the variance of the genes. Biological comparisons (for example, R5020/vehicle) were presented as log 2 fold change including the Benjamini and Hochberg (BH) adjusted P value (Benjamini et al. J Roy Stat Soc B Met 1995, 57:289-300) to account for multiple hypothesis testing. Expression data is available in the GEO database, accession: GSE94363.
Normalized gene expression data were filtered to isolate only high variance genes using the bioconductor package genefilter (Gentleman et al.: genefilter: genefilter: methods for filtering genes from high-throughput experiments. In., R package version 1.50.0 edn: R package version 1.50.0) using interquartile range cutoff value of 0.85. Non-negative matrix factorization (NMF) was performed within R using the NMF package version 0.20.5 (Gaujoux et al. BMC bioinformatics 2010, 11:367) where matrix factors were rank (2-10) and algorithm (brunet or snmf/r) optimized using the nmf function with parameters nrun=30 and seed=123456. […] Clustering and plots were performed in R (NMF package, a heat map function) using Euclidean distance and UPGMA (average) linkage.
PR ligand-mediated promoter selectivity remains understudied, especially in the context of antiprogestins and posttranslationally modified PR species. […]

T47D cells = test: Mammosphere formation in T47D cells; type: cell-based, human; details: T47D EV, WT, KR or S294A PR-B; estrogen 1 nM, progesterone 10 nM; 14 days
Protocol: Primary Mammospheres: Adherent cells were washed with PBS and dissociated enzymatically in 0.25% trypsin-EDTA (Invitrogen Corporation, Carlsbad, Calif.). Cells were sieved through a 40-μm sieve (BD FALCON, BD Biosciences, Bedford, Mass.) and analyzed microscopically for single-cellularity. Single cells were plated in ultra-low attachment plates (Corning, Inc., Corning, N.Y.) and cultured in a humid incubator. Cells were grown in a serum-free mammary epithelial basal medium (MEBM; Lonza Group, Basel, Switzerland) containing 1% B27 Supplement (Invitrogen Corporation, Carlsbad, Calif.), 1% penicillin-streptomycin (Invitrogen Corporation, Carlsbad, Calif.), 5 μg/ml insulin (Invitrogen Corporation, Carlsbad, Calif.), 20 ng/ml EGF (Sigma-Aldrich, St. Louis, Mo.), 1 ng/ml hydrocortisone (Sigma-Aldrich, St. Louis, Mo.), and 100 μM β-mercaptoethanol. […] Mammosphere Forming Efficiency (MFE) % was calculated by the number of mammospheres per well/number of cells seeded per well.
Secondary Mammospheres: Primary mammospheres were collected by centrifugation (5 min, 1000 rpm), and dissociated enzymatically in 0.25% typsin-EDTA. Cells were sieved through a 40-μm tip strainer (Bel-Art SP Scienceware, South Wayne, N.J.) and analyzed microscopically for single-cellularity. […] Mammosphere Forming Efficiency (MFE) % was calculated by the number of mammospheres per well/number of cells seeded per well. […]

breast cancer = details: women receiving tamoxifen; cited from earlier work

N#CC(=C(/N)Sc1ccccc1N)/C(C#N)=C(\N)Sc1ccccc1N [U0126]
effect on progesterone-induced PR Ser294 phosphorylation in tumor explants [1]: blocked

C/C=C\[C@]1(O)CC[C@H]2[C@@H]3CCC4=CC(=O)CCC4=C3[C@@H](c3ccc(N(C)C)cc3)C[C@@]21C [aglepristone]
PR Ser294 phosphorylation, ligand alone ([2]; 1 hour): stimulated robust PR Ser294 phosphorylation
PR Ser294 phosphorylation in the presence of progesterone (co-treatment) ([2]; progesterone plus antiprogestin): also induced Ser294 phosphorylation
regulation of PR target genes in cells expressing KR PR [3]: substantially regulate multiple genes in cells expressing KR PR

C[C@]12CC[C@@H]3c4ccc(O)cc4CC[C@H]3[C@@H]1CC[C@@H]2O [estrogen, estradiol]
total numbers of primary and secondary mammospheres on addition of hormone to culture media (T47D cells): had no significant effect on total numbers in any condition

CC/C(=C(\c1ccccc1)c1ccc(OCCN(C)C)cc1)c1ccccc1 [tamoxifen]
women suffering tumor relapse (breast cancer): ~40%
